Experimental data taken from US8293729B2 (Boehringer Ingelheim International GmbH, priority 2009, dated 2012).
Where two headings read alike, the source gives them in different places.

Columns and labels:
human GPR119 receptor = target: T1, human GPR119 receptor (Homo sapiens, UniProt Q8TDV5, S329A/T327A); test: cAMP assay (LANCE cAMP-384) in HEK293 cells stably expressing mutant human GPR119 receptor; assay type: cell-based
T1 construct: N-terminal leader […]; expressed in transfected cells
T1 sequence (Q8TDV5 with tags, fused parts or gaps T327A/S329A): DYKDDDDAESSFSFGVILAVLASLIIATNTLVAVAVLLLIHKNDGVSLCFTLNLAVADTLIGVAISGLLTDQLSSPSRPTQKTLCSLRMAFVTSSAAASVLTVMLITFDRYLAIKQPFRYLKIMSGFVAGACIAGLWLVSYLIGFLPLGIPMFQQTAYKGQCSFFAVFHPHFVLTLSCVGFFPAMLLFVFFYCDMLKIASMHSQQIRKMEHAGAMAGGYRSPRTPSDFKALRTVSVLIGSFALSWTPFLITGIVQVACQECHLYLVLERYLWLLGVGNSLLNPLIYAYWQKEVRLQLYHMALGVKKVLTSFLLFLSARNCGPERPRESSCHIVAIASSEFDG
Procedure, shortened: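 HEK293 cells stably expressing human GPR119 (T327A/S329A, modified N-terminus), 1000 cells/well, exposed to compound for 20 min at 37° C. cAMP quantified by LANCE TR-FRET against a standard curve; EC50 from 12 points, 30 μM to 100 pM, or % stimulation at 10 μM.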

male ZDF rats = test: In vivo OGTT (oral glucose tolerance test) in Sprague Dawley or Zucker Diabetic Fatty rats; parameters: species or system rat; details: nine week old male ZDF rats, 30 mg/kg p.o. 30 minutes prior to glucose bolus, 2 hrs post glucose bolus
Method: Nine to 13 week old Male Sprague Dawley rats weighing 250 g-350 g or 9 week old male Zucker Diabetic Fatty rats weighing 300 g-450 g were fasted overnight for 16 hours. At time zero, blood was collected using the tail-nick method and glucose was measured with a glucometer (Bayer HealthCare) Animals then immediately received either vehicle (80% Labrasol, Gattefossé, France) or 3, 10, or 30 mg/kg GPR119 agonist (p.o., volume 2 mL/kg). Thirty minutes later blood glucose was again measured preceding the administration of a glucose bolus (p.o. 2 g/kg, volume 6 mL/kg). Blood glucose was then determined at 10, 20, 30, 60, 90, 120, and 180 minutes post glucose bolus or 20, 40, 60, 80, 100, and 120 minutes past glucose bolus.
Nine week old male ZDF rats were dosed with either 30 mg/kg of Compound 2-35 or 30 mg/kg of Compound 8-1 30 minutes prior to administration of the glucose bolus.

[1] = cAMP accumulation, HEK293 cells stably expressing mutant human GPR119, read-out: EC50
[2] = the 19th table, unit inferred, read-out: EC 50
[3] = the 43rd table, compounds 75-1 to 75-38, read-out: EC50
[4] = the 44th table, compounds 77-1 to 77-14, read-out: EC50

Question: Which EC50 (human GPR119 receptor; [1]) does the source give for `CC(C)OC(=O)N1CCC(ON=C2CCN(c3cc(F)c([C@@H](C)N)cc3F)CC2)CC1` [Example 8-1, 4-{1-[4-((R)-1-Amino-ethyl)-2,5-difluoro-phenyl]-piperidin-4-ylideneaminooxy}-piperidine-1-carboxylic acid isopropyl ester] here?
Answer: 0.538 µM

Question: And the “reduction of glucose excursion compared to vehicle (glucose area under the curve)” value (male ZDF rats)?
Answer: 70%

Question: Which results are given for `CNC(=O)c1cc(F)c(N2CCC(=NOC3CCN(C(=O)OC(C)C)CC3)CC2)cc1F` [Example 2-35]?
Answer: EC50 (human GPR119 receptor; EC50, cAMP accumulation, HEK293 cells stably expressing mutant human GPR119): 0.034 µM; reduction of glucose excursion compared to vehicle (glucose area under the curve) (male ZDF rats): 75%

Question: `Cc1cccc(N2CCC(ON=C3CCN(c4ccc(S(C)(=O)=O)cc4F)CC3)CC2)n1` [Example 63-2] was tested. Which EC50 (human GPR119 receptor; the 32nd table, read-out: EC50) did it give?
Answer: 1.25 µM

Question: How did the EC50 (human GPR119 receptor; the 33rd table, read-out: EC50) turn out when `CC(C)[C@H](N)COC(=O)N1CCC(ON=C2CCN(c3ccc(S(C)(=O)=O)cc3F)CC2)CC1` [Example 64-37] was run?
Answer: > 10 µM

Question: Which EC50 (human GPR119 receptor; the 33rd table, read-out: EC50) does the source give for `Cc1ncccc1COC(=O)N1CCC(ON=C2CCN(c3ccc(S(C)(=O)=O)cc3F)CC2)CC1` [Example 64-26] here?
Answer: > 10 µM

Question: Which EC50 (human GPR119 receptor; [2]) does the source give for `CCc1cnc(N2CCC(ON=C3CCN(c4cc(F)c(C(=O)N5CCC[C@H]5CN)cc4F)CC3)CC2)nc1` [Example 29-133] here?
Answer: 0.164 µM

Question: For `CC(C)OC(=O)N1CCC(ON=C2CCN(c3ccc(C=O)c(O)c3)CC2)CC1` [Example 2-30], which EC50 (human GPR119 receptor; [1]) is on record?
Answer: > 10 µM

Question: For `CC(=O)OCc1cc(F)c(N2CCC(=NOC3CCN(C(=O)OC(C)C)CC3)CC2)cc1F` [Example 11-1, 4-[1-(4-acetoxymethyl-2,5-difluoro-phenyl)-piperidin-4-ylideneaminooxy]-piperidine-1-carboxylic acid isopropyl ester], which EC50 (human GPR119 receptor; [1]) is on record?
Answer: 0.067 µM

Question: How did the EC50 (human GPR119 receptor; the 26th table, read-out: EC50) turn out when `CC(C)OC(=O)N1CCC(ON=C2CCN(c3cc(F)c(S(C)(=O)=O)cc3F)CC2)CC1` [Example 46-2] was run?
Answer: 0.028 µM

Question: With `CC(C)OC(=O)N1CCC(ON=C2CCN(c3cc(F)c(CC(=O)N4CCC[C@@H]4CN4CCCC4)cc3F)CC2)CC1` [Example 75-28] as the compound, how does the EC50 (human GPR119 receptor; [3]) read?
Answer: 0.246 µM

Question: Which EC50 (human GPR119 receptor; [4]) does the source give for `CCc1cnc(N2CCC(ON=C3CCN(c4cc(F)c(CC(=O)N5CC[C@@H](N(C)C)C5)cc4F)CC3)CC2)nc1` [Example 77-6] here?
Answer: 0.009 µM

Question: Which EC50 (human GPR119 receptor; [4]) does the source give for `CCc1cnc(N2CCC(ON=C3CCN(c4cc(F)c(CC(=O)N5CCC(N)CC5)cc4F)CC3)CC2)nc1` [Example 77-2] here?
Answer: 0.022 µM

Question: Which EC50 (human GPR119 receptor; [1]) does the source give for `COC(=O)CCNCc1cc(F)c(N2CCC(=NOC3CCN(C(=O)OC(C)C)CC3)CC2)cc1F` [Example 5-7] here?
Answer: 1.15 µM

Question: `[2H]C([2H])(O)c1cc(F)c(N2CCC(=NOC3CCN(C(=O)OC(C)C)CC3)CC2)cc1F` [Example 48-2] was tested. Which EC50 (human GPR119 receptor; the 27th table, read-out: EC50) did it give?
Answer: 0.018 µM

Question: With `CC(C)OC(=O)N1CCC(ON=C2CCN(c3cc(F)c(Cn4cnc5cccnc54)cc3F)CC2)CC1` [Example 14-6] as the compound, how does the EC50 (human GPR119 receptor; [1]) read?
Answer: 0.647 µM

Question: With `CC(C)OC(=O)N1CCC(ON=C2CCN(c3cc(F)c([S+](C)[O-])cc3F)CC2)CC1` (stereo not shown) [Example 2-41] as the compound, how does the EC50 (human GPR119 receptor; [1]) read?
Answer: 0.058 µM

Question: `CCc1cnc(N2CCC(ON=C3CCN(c4cc(F)c(C(=O)NC5CCNC5)cc4F)CC3)CC2)nc1` (stereo not shown) [Example 29-123] was tested. Which EC50 (human GPR119 receptor; [2]) did it give?
Answer: 0.407 µM

Question: Which EC50 (human GPR119 receptor; [1]) does the source give for `CC(C)OC(=O)N1CCC(ON=C2CCN(c3nc(Cl)ncc3F)CC2)CC1` [Example 2-73] here?
Answer: 0.11 µM

Question: How did the activation at 10 µM (human GPR119 receptor; HEK293, 20 min, single concentration 10 μM, given where no EC50 value could be determined, read-out: % stimulation at 10 μM) turn out when `Cc1cccnc1N1CCC(=NOC2CCN(C(=O)OC(C)C)CC2)CC1` [Example 2-7] was run?
Answer: 55%

Question: With `CC(C)OC(=O)N1CCC(ON=C2CCN(c3cc(F)c(CC(=O)N4CC[C@@H](N)C4)cc3F)CC2)CC1` [Example 75-19] as the compound, how does the EC50 (human GPR119 receptor; [3]) read?
Answer: 0.078 µM

Question: `Cc1ccc(N2CCC(ON=C3CCN(c4ccc(S(C)(=O)=O)cc4F)CC3)CC2)nc1` [Example 67-1, 1-(2-Fluoro-4-methanesulfonyl-phenyl)-piperidin-4-one O-(5′-methyl-3,4,5,6-tetrahydro-2H-[1,2′]bipyridinyl-4-yl)-oxime] was tested. Which EC50 (human GPR119 receptor; the 39th table, compounds 67-1 to 67-3, read-out: EC50) did it give?
Answer: 0.386 µM

Question: For `CC(C)OC(=O)N1CCC(ON=C2CCN(c3cc(F)ccc3F)CC2)CC1` [Example 32-2], which EC50 (human GPR119 receptor; [1]) is on record?
Answer: 2.86 µM

Question: For `CC(C)OC(=O)N1CCC(ON=C2CCN(c3nc(F)ccc3F)CC2)CC1` [Example 2-70], which EC50 (human GPR119 receptor; [1]) is on record?
Answer: 3.26 µM

Question: `CCc1ccc(CN2CCC(ON=C3CCN(c4cc(F)c(S(C)(=O)=O)cc4F)CC3)CC2)cc1` [Example 66-55] was tested. Which EC50 (human GPR119 receptor; the 37th table, compounds 66-52 to 66-64, read-out: EC50) did it give?
Answer: 0.037 µM

Question: `CS(=O)(=O)c1ccc(N2CCC(=NOC3CCN(Cc4cccc(C(F)(F)F)c4)CC3)CC2)c(F)c1` [Example 66-30] was tested. Which EC50 (human GPR119 receptor; the 36th table, compounds 66-1 to 66-51, read-out: EC50) did it give?
Answer: 1.74 µM

Question: `CC(CN(C)C)OC(=O)N1CCC(ON=C2CCN(c3ccc(S(C)(=O)=O)cc3F)CC2)CC1` (stereo not shown) [Example 64-14] was tested. Which EC50 (human GPR119 receptor; the 33rd table, read-out: EC50) did it give?
Answer: > 10 µM
